Values joined by “and” are separate entries in the source; they are usually repeats but may differ in a detail not shown here. Equal values may be shown once.
Tests used:
[1] = system: HEK294 cells expressing human SPL cDNA construct (hSPL); experiment: Viability by MTT assay with doxorubicin, vector vs hSPL cells; type: cell-based; details: cells overexpressing SPL vs pcDNA3 vector; 24 h or 48 h; FIG. 1
Procedure: HEK294 cells expressing either pcDNA3 vector (PC) or a human SPL cDNA construct (hSPL) were incubated for 24 h (black bars) or 48 h (white bars) with doxorubicin, harvested and viability was determined by MTT assay. (Mosmann, J Immunol Methods, 1983, 65(1-2): 55-63).

SPL induced apoptosis = details: cells overexpressing SPL; cited from earlier work
[2] = system: ischemia/reperfusion (I/R) injury; experiment: Langendorff isolated heart ischemia/reperfusion, hearts from THI-treated mice; type: in vivo, C57BL6 male mice
Procedure: C57BL6 male mice were given THI in the water supply for 3 days. […] This example describes use of an isolated perfused heart model system for assessing cardioprotective effects of SPL inhibitors. […] Platinum electrodes connected to a stimulus generator are used to pace hearts at 360 beats/min. […] The balloon is inserted through the left atrium into the left ventricle, and pressures are recorded continuously on a chart recorder. Coronary flow is measured by collecting effluent from the coronary sinus. Noninvasive measurement of LV size and function are performed using standard echocardiographic methods in unanesthetized mice. LV dimensions, fractional shortening and ejection fraction are calculated before and at the end of a treatment period, before sacrifice in all animals.

bst1Δ cells = experiment: Sphingosine sensitivity of yeast growth, bst1Δ strain; type: cell-based, Saccharomyces cerevisiae; details: concentrations as low as 10 μM sphingosine
Description: (§1) A further test for SPL activity may be based upon functional complementation in the bst1Δ strain. It has been found, within the context of the present invention, that bst1Δ cells are highly sensitive to D-erythro-sphingosine. […] Such a level of sphingosine has no effect on the growth of wildtype cells.
(§2) A further test for SPL activity may be based upon functional complementation in the bst1Δ strain of Saccharomyces cerevisiae (Saba et al., 1997 J. Biol. Chem. 272:26087). It was been found, within the context of the presently disclosed embodiments, that bst1Δ cells were highly sensitive to D-erythro-sphingosine. […] Such a level of sphingosine had no effect on the growth of wildtype cells.

wildtype cells = experiment: Sphingosine sensitivity of yeast growth, wildtype; type: cell-based, Saccharomyces cerevisiae; details: 10 μM sphingosine
Description: as §1, §2

[3] = system: HEK293 kidney cells stably overexpressing human SPL (hSPL); experiment: Viability by MTT assay with daunorubicin, vector vs hSPL cells; type: cell-based; details: hSPL cells vs vector control; FIG. 2
Procedure: In an additional experiment, HEK293 cells expressing human SPL or vector control were treated with daunorubicin (DNR), and viability was determined by MTT assay. This assay relies on reduction of 3-(4,5-dimethylthiazol-2-yl)-2,5-diphenyl tetrazolium bromide (MTT reagent) by viable cells.

COc1cccc2c1C(=O)c1c(O)c3c(c(O)c1C2=O)C[C@@](O)(C(=O)CO)C[C@@H]3O[C@H]1C[C@H](N)[C@H](O)[C@H](C)O1 [doxorubicin]
cell survival in the presence of doxorubicin [1]: significantly reduced

Cc1ccc(C(=O)Cn2c3c(sc2=N)CCCC3)cc1 [pifithrin α]
effect on SPL induced apoptosis (SPL induced apoptosis): attenuation

CC(=O)c1nc(C(O)C(O)C(O)CO)c[nH]1 (centres unmarked) [THI, 2-acetyl-4-tetrahydroxybutylimidazole]
size of infarction (tissue uptake of tetrazolium red, TTC) ([2]; after 50 min ischemia, 40 min reperfusion, control heart 35%): 17%
LVEDP (LV end-diastolic pressure) ([2]; after 50 min no-flow ischemia, 40 min reperfusion, control heart 52): 34 mmHg
LVDP % Recovery, Ave. ([2]; average of 3 animals): 59.2%
LVDP Baseline, Ave. ([2]; average of 3 animals): 133.0 mmHg
LVDP Reperf. 40′, Ave. ([2]; average of 3 animals): 79.7 mmHg
LVDP (Left Ventricular Developed Pressure), Reperf. 40′ ([2]; individual animals, 50 min no-flow ischemia, 40 min reperfusion): 52 mmHg and 88 mmHg and 99 mmHg
LVDP % Recovery ([2]; individual animals, Reperf. 40′ vs Baseline): 42.6% and 64.2% and 70.7%
LVDP (Left Ventricular Developed Pressure), Baseline ([2]; individual animals, before ischemia): 122 mmHg and 137 mmHg and 140 mmHg

C[S+]([O-])c1ccc(-c2nc(-c3ccncc3)c(-c3ccc(F)cc3)[nH]2)cc1 (centres unmarked) [SB203580]
effect on SPL induced apoptosis (SPL induced apoptosis): attenuation

CCCCCCCCCCCCC/C=C/[C@@H](O)[C@@H](N)CO [sphingosine, D-erythro-sphingosine]
growth of bst1Δ cells (bst1Δ cells): completely inhibit
growth of wildtype cells (wildtype cells): no effect

COc1cccc2c1C(=O)c1c(O)c3c(c(O)c1C2=O)C[C@@](O)(C(C)=O)C[C@@H]3O[C@H]1C[C@H](N)[C@H](O)[C@H](C)O1 [daunorubicin]
sensitivity to daunorubicin (viability, MTT) [3]: more sensitive

Reference: US20080248032A1, “COMPOSITIONS AND METHODS FOR PROTECTION AGAINST CARDIAC AND/OR CENTRAL NERVOUS SYSTEM TISSUE INJURY BY INHIBITING SPHINGOSINE-1-PHOSPHATE LYASE” (CHILDREN'S HOSPITAL & RESEARCH CENTER AT OAKLAND, priority 2006, published 2008)
